According to patent US6770597B2, “Benzohydrazide derivatives as herbicides and desiccant compositions containing them” (Ishihara Sangyo Kaisha, Ltd., priority 2002, dated 2004):

Legend:
Format in all cases: in vivo
[1] = test system: velvetleaf (Abutilon theophrasti, ABUTH); test: Greenhouse herbicide screen, pre-emerge application, phytotoxicity rating; details: PRE emergent, 14 days after application, rating scale 0-100
Method in brief: (§1)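 Acetone-dissolved compounds are sprayed over pots at 15 to 1000 g ai/ha with a flat fan nozzle 40–45 cm above the target. Pre-emerge pots are top-watered immediately to incorporate; post-emerge pots are bottom-watered. Plants are rated 0–100 after 14 days.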

[2] = test system: sicklepod (Cassia obtusifolia, CASOB); test: as above; details: PRE emergent, 14 days after application, rating scale 0-100
Method in brief: as §1

[3] = test system: green foxtail (Setaria viridis, SETVI); test: as above; details: PRE emergent, 14 days after application, rating scale 0-100
Method in brief: as §1

[4] = test system: common ragweed (Ambrosia artemisiifolia L., AMBEL); test: as above; details: PRE emergent, 14 days after application, rating scale 0-100
Method in brief: as §1

[5] = test system: lambsquarters (Chenopodium album, CHEAL); test: as above; details: PRE emergent, 14 days after application, rating scale 0-100
Method in brief: as §1

[6] = test system: johnsongrass (Sorghum halepense, SORHA); test: as above; details: PRE emergent, 14 days after application, rating scale 0-100
Method in brief: as §1

[7] = test system: redroot pigweed (Amaranthus retrofiexus, AMARE); test: as above; details: PRE emergent, 14 days after application, rating scale 0-100
Method in brief: as §1

[8] = test system: ivyleaf morningglory (Ipomoea hederacea, IPOHE); test: as above; details: PRE emergent, 14 days after application, rating scale 0-100
Method in brief: as §1

[9] = test system: cocklebur (Xanthium strumarium, XANST); test: as above; details: PRE emergent, 14 days after application, rating scale 0-100
Method in brief: as §1

[10] = test system: large crabgrass (Digitaria sanguinalis, DIGSA); test: as above; details: PRE emergent, 14 days after application, rating scale 0-100
Method in brief: as §1

[11] = test system: barnyardgrass (Echinochloa crus-galli, ECHCG); test: as above; details: PRE emergent, 14 days after application, rating scale 0-100
Method in brief: as §1

[12] = test system: upland rice (Oryza sp., var.Cocodrie, RICE); test: Greenhouse herbicide screen, post-emerge application, crop damage rating; details: POST emergent, 14 days after application, scale 0-100
Method in brief: as §1

[13] = test system: field corn (Zea mays L., var. Dekalb 535, CORN); test: as above; details: POST emergent, 14 days after application, scale 0-100
Method in brief: as §1

[14] = test system: velvetleaf (Abutilon theophrasti, ABUTH); test: Greenhouse herbicide screen, post-emerge application, phytotoxicity rating; details: POST emergent, 14 days after application, scale 0-100
Method in brief: as §1

[15] = test system: sicklepod (Cassia obtusifolia, CASOB); test: as above; details: POST emergent, 14 days after application, scale 0-100
Method in brief: as §1

[16] = test system: green foxtail (Setaria viridis, SETVI); test: as above; details: POST emergent, 14 days after application, scale 0-100
Method in brief: as §1

[17] = test system: common ragweed (Ambrosia artemisiifolia L., AMBEL); test: as above; details: POST emergent, 14 days after application, scale 0-100
Method in brief: as §1

[18] = test system: lambsquarters (Chenopodium album, CHEAL); test: as above; details: POST emergent, 14 days after application, scale 0-100
Method in brief: as §1

[19] = test system: johnsongrass (Sorghum halepense, SORHA); test: as above; details: POST emergent, 14 days after application, scale 0-100
Method in brief: as §1

[20] = test system: redroot pigweed (Amaranthus retrofiexus, AMARE); test: as above; details: POST emergent, 14 days after application
Method in brief: as §1

[21] = test system: ivyleaf morningglory (Ipomoea hederacea, IPOHE); test: as above; details: POST emergent, 14 days after application, scale 0-100
Method in brief: as §1

[22] = test system: cocklebur (Xanthium strumarium, XANST); test: as above; details: POST emergent, 14 days after application, scale 0-100
Method in brief: as §1

[23] = test system: large crabgrass (Digitaria sanguinalis, DIGSA); test: as above; details: POST emergent, 14 days after application, scale 0-100
Method in brief: as §1

[24] = test system: barnyardgrass (Echinochloa crus-galli, ECHCG); test: as above; details: POST emergent, 14 days after application, scale 0-100
Method in brief: as §1

[25] = test system: upland rice (Oryza sp., var.Cocodrie, RICE); test: Greenhouse herbicide screen, pre-emerge application, crop damage rating; details: PRE emergent, 14 days after application, rating scale 0-100
Method in brief: as §1

[26] = test system: field corn (Zea mays L., var. Dekalb 535, CORN); test: as above; details: PRE emergent, 14 days after application, rating scale 0-100
Method in brief: as §1

SMILES: Cn1c(C(F)(F)F)cc(=O)n(-c2cc(C(=O)NN(Cc3ccccc3)Cc3ccccc3)c(Cl)cc2F)c1=O [Compound 1-29]
- phytotoxicity rating ABUTH ([1]; 63 g ai/ha): 100
- phytotoxicity rating ABUTH ([1]; 250 g ai/ha): 100
- phytotoxicity rating CASOB ([2]; 63 g ai/ha): 50
- phytotoxicity rating CASOB ([2]; 250 g ai/ha): 100
- phytotoxicity rating SETVI ([3]; 63 g ai/ha): 99
- phytotoxicity rating SETVI ([3]; 250 g ai/ha): 100
- phytotoxicity rating AMBEL ([4]; 63 g ai/ha): 75
- phytotoxicity rating AMBEL ([4]; 250 g ai/ha): 100
- phytotoxicity rating CHEAL ([5]; 63 g ai/ha): 100
- phytotoxicity rating CHEAL ([5]; 250 g ai/ha): 100
- phytotoxicity rating SORHA ([6]; 63 g ai/ha): 99
- phytotoxicity rating SORHA ([6]; 250 g ai/ha): 100
- phytotoxicity rating AMARE ([7]; 63 g ai/ha): 100
- phytotoxicity rating AMARE ([7]; 250 g ai/ha): 100
- phytotoxicity rating IPOHE ([8]; 63 g ai/ha): 90
- phytotoxicity rating IPOHE ([8]; 250 g ai/ha): 100
- phytotoxicity rating XANST ([9]; 63 g ai/ha): 0
- phytotoxicity rating XANST ([9]; 250 g ai/ha): 90
- phytotoxicity rating DIGSA ([10]; 63 g ai/ha): 85
- phytotoxicity rating DIGSA ([10]; 250 g ai/ha): 100
- phytotoxicity rating ECHCG ([11]; 63 g ai/ha): 55
- phytotoxicity rating ECHCG ([11]; 250 g ai/ha): 100
- crop damage rating RICE ([12]; 63 g ai/ha): 0
- crop damage rating RICE ([12]; 250 g ai/ha): 10
- crop damage rating CORN ([13]; 63 g ai/ha): 10
- crop damage rating CORN ([13]; 250 g ai/ha): 50
- phytotoxicity rating ABUTH ([14]; 63 g ai/ha): 100
- phytotoxicity rating ABUTH ([14]; 250 g ai/ha): 100
- phytotoxicity rating CASOB ([15]; 63 g ai/ha): 50
- phytotoxicity rating CASOB ([15]; 250 g ai/ha): 100
- phytotoxicity rating SETVI ([16]; 63 g ai/ha): 99
- phytotoxicity rating SETVI ([16]; 250 g ai/ha): 100
- phytotoxicity rating AMBEL ([17]; 63 g ai/ha): 75
- phytotoxicity rating AMBEL ([17]; 250 g ai/ha): 100
- phytotoxicity rating CHEAL ([18]; 63 g ai/ha): 100
- phytotoxicity rating CHEAL ([18]; 250 g ai/ha): 100
- phytotoxicity rating SORHA ([19]; 63 g ai/ha): 99
- phytotoxicity rating SORHA ([19]; 250 g ai/ha): 100
- phytotoxicity rating AMARE ([20]; 63 g ai/ha, scale 0-100 (0 no damage, 100 complete death)): 100
- phytotoxicity rating AMARE ([20]; 250 g ai/ha, scale 0-100): 100
- phytotoxicity rating IPOHE ([21]; 63 g ai/ha): 90
- phytotoxicity rating IPOHE ([21]; 250 g ai/ha): 100
- phytotoxicity rating XANST ([22]; 63 g ai/ha): 0
- phytotoxicity rating XANST ([22]; 250 g ai/ha): 90
- phytotoxicity rating DIGSA ([23]; 63 g ai/ha): 85
- phytotoxicity rating DIGSA ([23]; 250 g ai/ha): 100
- phytotoxicity rating ECHCO ([24]; 63 g ai/ha): 55
- phytotoxicity rating ECHCO ([24]; 250 g ai/ha): 100
- crop damage rating RICE ([25]; 63 g ai/ha): 0
- crop damage rating RICE ([25]; 250 g ai/ha): 10
- crop damage rating CORN ([26]; 63 g ai/ha): 10
- crop damage rating CORN ([26]; 250 g ai/ha): 50
